Experiments:
PDE5A = molecular target: T1, PDE5A (Homo sapiens, UniProt O76074); assay: Phosphodiesterase 5 HTRF cGMP assay; format: biochemical; conditions: for IC50: means ± S.D. (n = 4), read-out: PDE5 IC50; for inhibition at 10 µM: read-out: PDE5 % Inhibition at 10 μM
T1 construct: purchased BPS Bioscience, San Diego, CA, USA
Method: All the synthesized acridine derivatives were tested for their in vitro ability to inhibit PDE5A at a screening dose of 10 µM.
The enzyme activities of phosphodiesterase 5 (PDE5) were measured using an HTRF cGMP assay kit (Cisbio, Codolet, France). […] Afterward, the HTRF reagent (cGMP-d2 and anti-cGMP-cryptate) was added for 1 h at 25 °C, and PDE activity was assayed on an HTRF reader (Tecan Infinite F200 Pro).

[1] = system: panel of 60 human tumor cell lines; assay: NCI 60-cell line one-dose screen (mean); format: cell-based; conditions: mean of the 60 cell lines, single dose 10^−5 M, read-out: Mean % Growth Inhibition
In short: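 At the NCI Developmental Therapeutic Program, each compound is screened once at 10^−5 M across sixty human tumour cell lines. Values are % inhibition.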

CCRF-CEM = assay: NCI-60 one-dose screen; format: cell-based; conditions: Homo sapiens, Leukemia panel, single dose 10^−5 M, read-out: Growth inhibition %
EKVX = assay: NCI-60 one-dose screen; format: cell-based; conditions: Homo sapiens, Non-small cell lung panel, single dose 10^−5 M, read-out: Growth inhibition %
HCT-15 = assay: NCI-60 one-dose screen; format: cell-based; conditions: Homo sapiens; HCT-15, Colon Cancer panel; single dose 10^−5 M; read-out: Growth inhibition %
HL-60(TB) = assay: NCI-60 one-dose screen; format: cell-based; conditions: Homo sapiens, Leukemia panel, single dose 10^−5 M, read-out: Growth inhibition %
HOP-92 = assay: NCI-60 one-dose screen; format: cell-based; conditions: Homo sapiens; HOP-92, Non-small cell lung panel; single dose 10^−5 M; read-out: Growth inhibition %
HS 578T = assay: NCI-60 one-dose screen; format: cell-based; conditions: Homo sapiens, Breast Cancer panel, single dose 10^−5 M, read-out: Growth inhibition %
HT29 = assay: NCI-60 one-dose screen; format: cell-based; conditions: Homo sapiens, HT-29; HT29, Colon Cancer panel; single dose 10^−5 M; read-out: Growth inhibition %
M14 = assay: NCI-60 one-dose screen; format: cell-based; conditions: Homo sapiens; M14, Melanoma panel; single dose 10^−5 M; read-out: Growth inhibition %
MALME-3M = assay: NCI-60 one-dose screen; format: cell-based; conditions: Homo sapiens, Melanoma panel, single dose 10^−5 M, read-out: Growth inhibition %
MDA-MB-231/ATCC = assay: NCI-60 one-dose screen; format: cell-based; conditions: Homo sapiens, Breast Cancer panel, single dose 10^−5 M, read-out: Growth inhibition %
MDA-MB-435 = assay: NCI-60 one-dose screen; format: cell-based; conditions: Homo sapiens; MDA-MB-435, Melanoma panel; single dose 10^−5 M; read-out: Growth inhibition %
MOLT-4 = assay: NCI-60 one-dose screen; format: cell-based; conditions: Homo sapiens; MOLT-4, Leukemia panel; single dose 10^−5 M; read-out: Growth inhibition %
NCI-H23 = assay: NCI-60 one-dose screen; format: cell-based; conditions: Homo sapiens; NCI-H23, Non-small cell lung panel; single dose 10^−5 M; read-out: Growth inhibition %
NCI-H322M = assay: NCI-60 one-dose screen; format: cell-based; conditions: Homo sapiens, Non-small cell lung panel, single dose 10^−5 M, read-out: Growth inhibition %
NCI-H460 = assay: NCI-60 one-dose screen; format: cell-based; conditions: Homo sapiens; NCI-H460, Non-small cell lung panel; single dose 10^−5 M; read-out: Growth inhibition %
OVCAR-3 = assay: NCI-60 one-dose screen; format: cell-based; conditions: Homo sapiens; OVCAR-3, Ovarian Cancer panel; single dose 10^−5 M; read-out: Growth inhibition %
OVCAR-4 = assay: NCI-60 one-dose screen; format: cell-based; conditions: Homo sapiens; OVCAR-4, Ovarian Cancer panel; single dose 10^−5 M; read-out: Growth inhibition %
OVCAR-5 = assay: NCI-60 one-dose screen; format: cell-based; conditions: Homo sapiens; OVCAR-5, Ovarian Cancer panel; single dose 10^−5 M; read-out: Growth inhibition %
OVCAR-8 = assay: NCI-60 one-dose screen; format: cell-based; conditions: Homo sapiens; OVCAR-8, Ovarian Cancer panel; single dose 10^−5 M; read-out: Growth inhibition %
SK-MEL-2 = assay: NCI-60 one-dose screen; format: cell-based; conditions: Homo sapiens; SK-MEL-2, Melanoma panel; single dose 10^−5 M; read-out: Growth inhibition %
SNB-75 = assay: NCI-60 one-dose screen; format: cell-based; conditions: Homo sapiens; SNB-75, CNS Cancer panel; single dose 10^−5 M; read-out: Growth inhibition %
T-47D = assay: NCI-60 one-dose screen; format: cell-based; conditions: Homo sapiens, T47D, Breast Cancer panel, single dose 10^−5 M, read-out: Growth inhibition %
TK-10 = assay: NCI-60 one-dose screen; format: cell-based; conditions: Homo sapiens; TK-10, Renal Cancer panel; single dose 10^−5 M; read-out: Growth inhibition %
SF-268 = assay: NCI-60 one-dose screen; format: cell-based; conditions: Homo sapiens; SF-268, CNS Cancer panel; single dose 10^−5 M; read-out: Growth inhibition %
LOX IMVI = assay: NCI-60 one-dose screen; format: cell-based; conditions: Homo sapiens, Melanoma panel, single dose 10^−5 M, read-out: Growth inhibition %
IGROV1 = assay: NCI-60 one-dose screen; format: cell-based; conditions: Homo sapiens, IGROV-1; IGROV1, Ovarian Cancer panel; single dose 10^−5 M; read-out: Growth inhibition %
HCT-116 = assay: MTT cell proliferation assay, HCT-116; conditions: for % Inhibition at 10 µM: 72 h MTT, means ± SD; for IC50: read-out: IC50 μM, 72 h MTT, means ± SD, three experiments
CCD-966SK = assay: MTT cell proliferation assay, CCD-966SK; conditions: CCD966SK skin fibroblast, 72 h MTT; for IC50: read-out: IC50 μM

Row | Structure (SMILES) | IC50 (PDE5A) [µM] | inhibition at 10 µM (PDE5A) [%] | inhibition at 10 µM [1] [%] | inhibition at 10 µM (CCRF-CEM) [%] | inhibition at 10 µM (EKVX) [%] | inhibition at 10 µM (HCT-15) [%] | inhibition at 10 µM (HL-60(TB)) [%] | inhibition at 10 µM (HOP-92) [%] | inhibition at 10 µM (HS 578T) [%] | inhibition at 10 µM (HT29) [%] | inhibition at 10 µM (M14) [%] | inhibition at 10 µM (MALME-3M) [%] | inhibition at 10 µM (MDA-MB-231/ATCC) [%] | inhibition at 10 µM (MDA-MB-435) [%] | inhibition at 10 µM (MOLT-4) [%] | inhibition at 10 µM (NCI-H23) [%] | inhibition at 10 µM (NCI-H322M) [%] | inhibition at 10 µM (NCI-H460) [%] | inhibition at 10 µM (OVCAR-3) [%] | inhibition at 10 µM (OVCAR-4) [%] | other results
1 | Fc1ccc(CNc2c3ccccc3nc3ccccc23)cc1 [Compound 10, Acridin-9-yl-(4-fluorobenzyl)-amine] | > 10 | 47 ± 7.06 | 72.3 | 74 | 64.4 | 82.4 | 78.8 | 82.8 | 60.5 | 83.9 | 65.7 | 74.3 | 61.7 | 65.2 | 91.3 | 68.3 | 61.5 | 91.2 | 61.3 | 66.8 | inhibition at 10 µM (OVCAR-5): 61.5%; inhibition at 10 µM (OVCAR-8): 77.7%; inhibition at 10 µM (SK-MEL-2): 56.2%; inhibition at 10 µM (SNB-75): 57.9%; inhibition at 10 µM (T-47D): 68.9%; inhibition at 10 µM (TK-10): 69.8%; inhibition at 10 µM (SF-268): 46.8%; inhibition at 10 µM (LOX IMVI): 90.6%; inhibition at 10 µM (IGROV1): 78.1%; % Inhibition at 10 µM (HCT-116): 67.57 ± 0.29%; IC50 (HCT-116): 2.75 ± 0.04 µM; % Inhibition at 10 µM (CCD-966SK): 52.93 ± 1.00%; IC50 (CCD-966SK): 9.26 ± 0.21 µM
2 | Clc1ccc(CNc2c3ccccc3nc3ccccc23)cc1 [Compound 13, Acridin-9-yl-(4-chlorobenzyl)-amine] | > 10 | 45.3 ± 3.99 | 59.4 | 69.8 | 37.4 | 76.7 | 55.3 | 74.5 | 46.2 | 85 | 46.7 | 60.4 | 45.2 | 39.3 | 95.4 | 47 | 45.9 | 83.6 | 48.9 | 66.9 | inhibition at 10 µM (OVCAR-5): 49.5%; inhibition at 10 µM (OVCAR-8): 68.1%; inhibition at 10 µM (SK-MEL-2): 27.6%; inhibition at 10 µM (SNB-75): 31.6%; inhibition at 10 µM (T-47D): 56.6%; inhibition at 10 µM (TK-10): 50.3%; inhibition at 10 µM (SF-268): 32.1%; inhibition at 10 µM (LOX IMVI): 77%; inhibition at 10 µM (IGROV1): 68.3%; % Inhibition at 10 µM (HCT-116): 11.67 ± 4.59%; % Inhibition at 10 µM (CCD-966SK): 2.73 ± 4.11%
3 | c1ccc(CCNc2c3ccccc3nc3ccccc23)cc1 [Compound 23, Acridin-9-yl-phenethyl-amine] | 6.68 ± 1.1 | 57.3 ± 3.58 | 60.7 | 46.7 | 63.7 | 76.7 | 58.7 | 102 | 26.7 | 77.9 | 57.3 | 42.9 | 56.7 | 44.7 | 75.4 | 61.4 | 53.4 | 84.7 | 29 | 65 | inhibition at 10 µM (OVCAR-5): 46.6%; inhibition at 10 µM (OVCAR-8): 61.7%; inhibition at 10 µM (SK-MEL-2): 13.7%; inhibition at 10 µM (SNB-75): 32.4%; inhibition at 10 µM (T-47D): 51.1%; inhibition at 10 µM (TK-10): 46.8%; inhibition at 10 µM (SF-268): 33.5%; inhibition at 10 µM (LOX IMVI): 82.4%; inhibition at 10 µM (IGROV1): 72%; % Inhibition at 10 µM (HCT-116): 40.12 ± 0.11%; % Inhibition at 10 µM (CCD-966SK): 11.36 ± 7.38%
4 | Cc1ccccc1CNc1c2ccccc2nc2ccccc12 [Compound 2, Acridin-9-yl-(2-methylbenzyl)-amine] | 9.87 ± 2.06 | 50.4 ± 3.68 | 77.7 | 82.4 | 61.6 | 85.4 | 84.7 | 101 | 64.3 | 91.1 | 86.8 | 84.8 | 60.1 | 76.1 | 91.2 | 76.6 | 71 | 93.1 | 68.7 | 67.1 | inhibition at 10 µM (OVCAR-5): 63.3%; inhibition at 10 µM (OVCAR-8): 79%; inhibition at 10 µM (SK-MEL-2): 59.9%; inhibition at 10 µM (SNB-75): 54.7%; inhibition at 10 µM (T-47D): 75.5%; inhibition at 10 µM (TK-10): 61.4%; inhibition at 10 µM (SF-268): 57.1%; inhibition at 10 µM (LOX IMVI): 90.9%; inhibition at 10 µM (IGROV1): 85.2%; % Inhibition at 10 µM (HCT-116): 66.96 ± 0.14%; IC50 (HCT-116): 4.01 ± 0.17 µM; % Inhibition at 10 µM (CCD-966SK): 59.74 ± 0.55%; IC50 (CCD-966SK): 4.18 ± 0.36 µM
5 | Fc1ccccc1CNc1c2ccccc2nc2ccccc12 [Compound 8, Acridin-9-yl-(2-fluorobenzyl)-amine] | 7.16 ± 2.75 | 57.5 ± 6.43 | 56.5 | 54 | 38.3 | 70.3 | 43.1 | 77.3 | 30.9 | 76.7 | 46 | 55.3 | 46 | 43.8 | 82.7 | 55.9 | 49.7 | 86.5 | 35.9 | 60 | inhibition at 10 µM (OVCAR-5): 48.8%; inhibition at 10 µM (OVCAR-8): 68.9%; inhibition at 10 µM (SK-MEL-2): 21.8%; inhibition at 10 µM (SNB-75): 28.3%; inhibition at 10 µM (T-47D): 55.2%; inhibition at 10 µM (TK-10): 41.8%; inhibition at 10 µM (SF-268): 20.1%; inhibition at 10 µM (LOX IMVI): 73.9%; inhibition at 10 µM (IGROV1): 63.4%; % Inhibition at 10 µM (HCT-116): 66.44 ± 0.80%; IC50 (HCT-116): 3.05 ± 0.15 µM; % Inhibition at 10 µM (CCD-966SK): 42.52 ± 2.0%

Source: paper PMC9866191, “Novel 9-Benzylaminoacridine Derivatives as Dual Inhibitors of Phosphodiesterase 5 and Topoisomerase II for the Treatment of Colon Cancer” (Molecules, 2023)
